From ChEMBL document CHEMBL3885861, “Open TG-GATES”

Organism: Rattus norvegicus
Test: Open TG-GATES - Regimen: Single
Format: toxicity, organism-based, Sprague-Dawley
Design: regimen Single, gender Male, age 6 weeks
Settings: in vivo, po, route gavage; for APTT / Bas / Eos / Fbg / Hb / Ht / Lym / MCH / MCHC / MCV / Mono / Neu / PT / Plat / RBC / Ret / WBC: tissue Blood; for KIDNEY_L / KIDNEY_R / KIDNEY_TOTAL: tissue Kidney; for LIVER: tissue Liver; for A/G / ALP / ALT / AST / BUN / CRE / Ca / Cl / DBIL / GLC / IP / K / LDH / Na / PL / RALB / TBIL / TC / TG / TP / gamma-GTP: tissue Plasma
[1] = 100 mg/kg, 3 h, dose level Middle
[2] = 100 mg/kg, 6 h, dose level Middle
[3] = 100 mg/kg, 9 h, dose level Middle
[4] = 100 mg/kg, 24 h, dose level Middle
[5] = 300 mg/kg, 3 h, dose level High
[6] = 300 mg/kg, 6 h, dose level High
[7] = 300 mg/kg, 9 h, dose level High
[8] = 300 mg/kg, 24 h, dose level High

## CCCNC(=O)NS(=O)(=O)c1ccc(Cl)cc1 [CHLORPROPAMIDE]
[1]
  TERMINAL_BW: 198.7 g
  APTT: 19.6 s
  Bas: 0%
  Eos: 1%
  Fbg: 311.8 mg/dL
  Hb: 13.9 g/dL
  Ht: 42.7%
  Lym: 73.2%
  MCH: 21.4 pg
  MCHC: 32.5%
  MCV: 66 fL
  Mono: 3.8%
  Neu: 20.8%
  PT: 15.6 s
  Plat: 113.1 x10_4/uL
  RBC: 648.4 x10_4/ul
  Ret: 9.2%
  WBC: 72.2 x10_2/uL
  KIDNEY_L: 0.9 g
  KIDNEY_R: 0.9 g
  KIDNEY_TOTAL: 1.8 g
  LIVER: 8.8 g
  A/G: 0.9
  ALP: 1315.6 IU/L
  ALT: 48.8 IU/L
  AST: 80 IU/L
  BUN: 11.2 mg/dL
  CRE: 0.2 mg/dL
  Ca: 10.8 mg/dL
  Cl: 107.8 meq/L
  DBIL: 0.01 mg/dL
  GLC: 126.4 mg/dL
  IP: 9.2 mg/dL
  K: 3.8 meq/L
  LDH: 71.6 IU/L
  Na: 144.6 meq/L
  PL: 129 mg/dL
  RALB: 2.6 g/dL
  TBIL: 0.02 mg/dL
  TC: 74.6 mg/dL
  TG: 71 mg/dL
  TP: 5.7 g/dL
  gamma-GTP: 1.4 IU/L
[2]
  TERMINAL_BW: 194.9 g
  APTT: 23.7 s
  Bas: 0.2%
  Eos: 1%
  Fbg: 317 mg/dL
  Hb: 13.6 g/dL
  Ht: 41.9%
  Lym: 71.6%
  MCH: 21.7 pg
  MCHC: 32.4%
  MCV: 66.9 fL
  Mono: 3.6%
  Neu: 22.4%
  PT: 15.1 s
  Plat: 122.2 x10_4/uL
  RBC: 627 x10_4/ul
  Ret: 9.8%
  WBC: 96.8 x10_2/uL
  KIDNEY_L: 0.9 g
  KIDNEY_R: 0.8 g
  KIDNEY_TOTAL: 1.7 g
  LIVER: 8 g
  A/G: 0.9
  ALP: 1525.8 IU/L
  ALT: 44.2 IU/L
  AST: 80.8 IU/L
  BUN: 12.6 mg/dL
  CRE: 0.2 mg/dL
  Ca: 11 mg/dL
  Cl: 109 meq/L
  DBIL: 0.002 mg/dL
  GLC: 123.8 mg/dL
  IP: 9.9 mg/dL
  K: 4 meq/L
  LDH: 81 IU/L
  Na: 143.8 meq/L
  PL: 139.6 mg/dL
  RALB: 2.6 g/dL
  TBIL: 0.02 mg/dL
  TC: 85.4 mg/dL
  TG: 49.8 mg/dL
  TP: 5.7 g/dL
  gamma-GTP: 1.2 IU/L
[3]
  TERMINAL_BW: 194.2 g
  APTT: 17.1 s
  Bas: 0%
  Eos: 1%
  Fbg: 307.8 mg/dL
  Hb: 13.1 g/dL
  Ht: 40.7%
  Lym: 71.4%
  MCH: 20.9 pg
  MCHC: 32.3%
  MCV: 64.8 fL
  Mono: 3%
  Neu: 24%
  PT: 15.1 s
  Plat: 119.5 x10_4/uL
  RBC: 627.4 x10_4/ul
  Ret: 10%
  WBC: 82.5 x10_2/uL
  KIDNEY_L: 0.9 g
  KIDNEY_R: 0.9 g
  KIDNEY_TOTAL: 1.8 g
  LIVER: 7.8 g
  A/G: 0.9
  ALP: 1124.6 IU/L
  ALT: 35.6 IU/L
  AST: 77 IU/L
  BUN: 9.8 mg/dL
  CRE: 0.2 mg/dL
  Ca: 10.7 mg/dL
  Cl: 107.6 meq/L
  DBIL: 0 mg/dL
  GLC: 119.4 mg/dL
  IP: 10.1 mg/dL
  K: 3.9 meq/L
  LDH: 68.6 IU/L
  Na: 143.2 meq/L
  PL: 120.4 mg/dL
  RALB: 2.5 g/dL
  TBIL: 0.026 mg/dL
  TC: 70.8 mg/dL
  TG: 37 mg/dL
  TP: 5.4 g/dL
  gamma-GTP: 1.2 IU/L
[4]
  TERMINAL_BW: 210.9 g
  APTT: 20 s
  Bas: 0%
  Eos: 1%
  Fbg: 318.2 mg/dL
  Hb: 12.6 g/dL
  Ht: 39.1%
  Lym: 73%
  MCH: 21 pg
  MCHC: 32.2%
  MCV: 65.2 fL
  Mono: 3.6%
  Neu: 21%
  PT: 15.8 s
  Plat: 111.8 x10_4/uL
  RBC: 599.4 x10_4/ul
  Ret: 9.2%
  WBC: 97.9 x10_2/uL
  KIDNEY_L: 0.9 g
  KIDNEY_R: 1 g
  KIDNEY_TOTAL: 1.9 g
  LIVER: 9.6 g
  A/G: 0.9
  ALP: 1496.2 IU/L
  ALT: 45.4 IU/L
  AST: 70.2 IU/L
  BUN: 15.6 mg/dL
  CRE: 0.2 mg/dL
  Ca: 10.9 mg/dL
  Cl: 105.8 meq/L
  DBIL: 0.004 mg/dL
  GLC: 177.4 mg/dL
  IP: 8.4 mg/dL
  K: 3.7 meq/L
  LDH: 87.2 IU/L
  Na: 143 meq/L
  PL: 145 mg/dL
  RALB: 2.6 g/dL
  TBIL: 0.032 mg/dL
  TC: 81.4 mg/dL
  TG: 63.6 mg/dL
  TP: 5.5 g/dL
  gamma-GTP: 1 IU/L
[5]
  TERMINAL_BW: 198 g
  APTT: 20.5 s
  Bas: 0%
  Eos: 0.6%
  Fbg: 309.8 mg/dL
  Hb: 14.6 g/dL
  Ht: 45.2%
  Lym: 74.8%
  MCH: 20.8 pg
  MCHC: 32.2%
  MCV: 64.6 fL
  Mono: 4.6%
  Neu: 18.6%
  PT: 15.7 s
  Plat: 121.4 x10_4/uL
  RBC: 700.6 x10_4/ul
  Ret: 9.7%
  WBC: 57 x10_2/uL
  KIDNEY_L: 0.8 g
  KIDNEY_R: 0.9 g
  KIDNEY_TOTAL: 1.7 g
  LIVER: 9.1 g
  A/G: 0.9
  ALP: 1404.2 IU/L
  ALT: 46.4 IU/L
  AST: 80.8 IU/L
  BUN: 12 mg/dL
  CRE: 0.2 mg/dL
  Ca: 10.8 mg/dL
  Cl: 105.4 meq/L
  DBIL: 0.008 mg/dL
  GLC: 147.4 mg/dL
  IP: 10.1 mg/dL
  K: 3.8 meq/L
  LDH: 86 IU/L
  Na: 143.8 meq/L
  PL: 126.8 mg/dL
  RALB: 2.8 g/dL
  TBIL: 0.018 mg/dL
  TC: 71.8 mg/dL
  TG: 60 mg/dL
  TP: 6 g/dL
  gamma-GTP: 1 IU/L
[6]
  TERMINAL_BW: 195 g
  APTT: 19.7 s
  Bas: 0%
  Eos: 1%
  Fbg: 344.4 mg/dL
  Hb: 14.6 g/dL
  Ht: 44.7%
  Lym: 72.2%
  MCH: 21.7 pg
  MCHC: 32.6%
  MCV: 66.6 fL
  Mono: 4.2%
  Neu: 21.4%
  PT: 16.1 s
  Plat: 105.8 x10_4/uL
  RBC: 670.8 x10_4/ul
  Ret: 9%
  WBC: 59.6 x10_2/uL
  KIDNEY_L: 0.9 g
  KIDNEY_R: 0.9 g
  KIDNEY_TOTAL: 1.8 g
  LIVER: 8 g
  A/G: 0.9
  ALP: 1619.2 IU/L
  ALT: 45.2 IU/L
  AST: 77.4 IU/L
  BUN: 14.8 mg/dL
  CRE: 0.2 mg/dL
  Ca: 10.9 mg/dL
  Cl: 106.2 meq/L
  DBIL: 0.004 mg/dL
  GLC: 108.4 mg/dL
  IP: 10.2 mg/dL
  K: 4.1 meq/L
  LDH: 82.6 IU/L
  Na: 143.2 meq/L
  PL: 135.8 mg/dL
  RALB: 2.8 g/dL
  TBIL: 0.018 mg/dL
  TC: 79.8 mg/dL
  TG: 46.6 mg/dL
  TP: 6 g/dL
  gamma-GTP: 1.2 IU/L
[7]
  TERMINAL_BW: 193.3 g
  APTT: 19.1 s
  Bas: 0.4%
  Eos: 0.8%
  Fbg: 391.6 mg/dL
  Hb: 13.4 g/dL
  Ht: 41.5%
  Lym: 72.2%
  MCH: 21.3 pg
  MCHC: 32.3%
  MCV: 65.8 fL
  Mono: 3%
  Neu: 23.2%
  PT: 16.8 s
  Plat: 118.3 x10_4/uL
  RBC: 629.8 x10_4/ul
  Ret: 8.9%
  WBC: 93.5 x10_2/uL
  KIDNEY_L: 0.9 g
  KIDNEY_R: 0.9 g
  KIDNEY_TOTAL: 1.7 g
  LIVER: 8.2 g
  A/G: 0.9
  ALP: 1339.6 IU/L
  ALT: 46.8 IU/L
  AST: 83.2 IU/L
  BUN: 15.4 mg/dL
  CRE: 0.2 mg/dL
  Ca: 10.9 mg/dL
  Cl: 106.4 meq/L
  DBIL: 0.008 mg/dL
  GLC: 96.8 mg/dL
  IP: 10.3 mg/dL
  K: 3.9 meq/L
  LDH: 85.2 IU/L
  Na: 143.6 meq/L
  PL: 127.8 mg/dL
  RALB: 2.7 g/dL
  TBIL: 0.022 mg/dL
  TC: 72.4 mg/dL
  TG: 50.6 mg/dL
  TP: 5.8 g/dL
  gamma-GTP: 1.2 IU/L
[8]
  TERMINAL_BW: 201.3 g
  APTT: 21.1 s
  Bas: 0%
  Eos: 1%
  Fbg: 308 mg/dL
  Hb: 13.2 g/dL
  Ht: 41.1%
  Lym: 81.2%
  MCH: 20.4 pg
  MCHC: 32.1%
  MCV: 63.5 fL
  Mono: 3%
  Neu: 13.6%
  PT: 16.2 s
  Plat: 114.9 x10_4/uL
  RBC: 647.2 x10_4/ul
  Ret: 7%
  WBC: 88.4 x10_2/uL
  KIDNEY_L: 0.9 g
  KIDNEY_R: 0.9 g
  KIDNEY_TOTAL: 1.8 g
  LIVER: 8.5 g
  A/G: 0.9
  ALP: 1944.4 IU/L
  ALT: 46.8 IU/L
  AST: 75 IU/L
  BUN: 15.4 mg/dL
  CRE: 0.2 mg/dL
  Ca: 10.8 mg/dL
  Cl: 108 meq/L
  DBIL: 0.008 mg/dL
  GLC: 185.4 mg/dL
  IP: 8.1 mg/dL
  K: 3.6 meq/L
  LDH: 74 IU/L
  Na: 142.2 meq/L
  PL: 129.6 mg/dL
  RALB: 2.7 g/dL
  TBIL: 0.022 mg/dL
  TC: 74.8 mg/dL
  TG: 45.4 mg/dL
  TP: 5.7 g/dL
  gamma-GTP: 1 IU/L
